Measured values from patent US20250197387A1, “BCL-XL DEGRADERS AND USES THEREOF” (Kymera Therapeutics, Inc., priority 2021, published 2025).
Like-named read-outs stand apart in the source and are kept apart here.

Experiments:
Type in all cases: cell-based
BCL-XL [1] = biological target: T1, BCL-XL (Homo sapiens, UniProt Q07817); assay: Bcl-xL ELISA degradation in MOLT-4 cells, 6 h; conditions: for DC50: read-out: Bcl-xL ELISA in MOLT-4 degradation 6 h: Mean external-Abs DC50
T1 construct: endogenous in cells; host or cells: MOLT-4
T1 sequence (Q07817 whole entry): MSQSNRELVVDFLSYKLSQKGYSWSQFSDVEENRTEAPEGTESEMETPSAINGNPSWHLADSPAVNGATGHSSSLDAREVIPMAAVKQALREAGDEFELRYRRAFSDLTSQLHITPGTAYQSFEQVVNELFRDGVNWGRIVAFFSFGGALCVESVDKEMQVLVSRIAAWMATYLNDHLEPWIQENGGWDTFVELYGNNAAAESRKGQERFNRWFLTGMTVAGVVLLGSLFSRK
Protocol: The letter codes for BCL-XL DC50 include: A (<0.01 μM); B (0.01-0.1 μM); C (>[…]); D (>0.5-1.0 μM); and E (>1.0 μM). The letter codes for Dmax % include A (>75%); B (50 to 75%); C (<50%).

BCL-XL [2] = biological target: T1, BCL-XL; assay: BCL-XL degradation assay, western blot in MOLT-4 cells, 16 h; conditions: for DC50: read-out: Bcl-xL WB in MOLT-4 degradation 16 h: Mean external-Abs DC50
Procedure, shortened: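 MOLT-4 cells treated with compounds at 0.02-10 μM final for 16 hr at 37° C; lysates analysed by western blot with anti-BCL-xL, beta-actin and GAPDH loading controls, infrared imaging and densitometry; DC50 and Dmax % reported as letter codes.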

MOLT-4 cells = assay: CTG (CellTiter-Glo) cell viability assay, MOLT-4; conditions: Homo sapiens, 3 day incubation, read-out: CTG Cell Viability Assay - MOLT-4 3 day: Average external-IC50
Procedure, shortened: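 Luminescence from CellTiter-Glo, read after 3 days of compound exposure at 37 °C, gave viability; IC50 values came from three-parameter logistic curves. Cells were plated at 10,000 per well and dosed over nine 1:3 steps topping at 10 μM.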

Caki-2 cells = assay: CTG (CellTiter-Glo) cell viability assay, Caki-2; conditions: Homo sapiens, 72 h, 3 day incubation, read-out: CTG Chempartner - Caki-2 3 day: Average external-IC50
Protocol: Compound-mediated viability effect on MOLT-4 and Caki-2 was quantitatively determined using the CellTiter-Glo® Luminescent Cell Viability Assay kit from Promega (Catalog number G7570) following manufacturer's recommended procedures. Briefly, MOLT-4 and Caki-2 cells were seeded into 384 well plates (Grenier Bio-One, Catalog number 781080) with a density of 10,000 cells per well. Compounds were then added to the assay plate with final top concentration of 10 μM and 1:3 dilution series with total of 9 doses. The final DMSO concentration is normalized to 0.2%. The assay plates were incubated at 37° C., for 3 days under 5% CO2. Then the assay plate was equilibrated at room temperature for 10 minutes. To determine cell viability, 30 uL CellTiter Glo reagent was added to each well and the assay plate was centrifuged at 1000 rpm for 30 second, incubated at room temperature for 10 min, and analyzed by detecting the luminescence using a multimode plate reader (EnVision 2105, PerkinElmer). The data was then analyzed by software Prism 7.0 from GraphPad and the dose response curves are fit using a three-parameter logistic equation to calculate IC50.
The letter codes for MOLT-4 IC50 include: A (<0.1 μM); B (0.1-1.0 μM); C (>1.0-3.0 μM); and D (>3.0 μM). The letter codes for Caki-2 IC50 include: A (<0.1 μM); B (0.1-1.0 μM); C (>1.0-10.0 μM); and D (>10.0 μM).

[3] = western blot, MOLT-4 cells, 16 h, read-out: Bcl-xL WB in MOLT-4 degradation 16 h: Average Dmax %
[4] = western blot, MOLT-4 cells, 16 h

Dmax (BCL-XL [1]) | DC50 (BCL-XL [1]) | Dmax (BCL-XL [2]; [3]) | DC50 (BCL-XL [2]; [4]) | IC50 (MOLT-4 cells; MOLT-4, 72 h) | Compound | IC50 (Caki-2 cells) | Dmax (BCL-XL [2]; MOLT-4, read-out: Bcl-xL WB in MOLT-4 degradation 16 h: Average Dmax %) | IC50 (MOLT-4 cells; 72 h)
50 to 75% | 100 to 500 nM | > 75% | 10 to 100 nM | 100 to 1000 nM | Cc1ncsc1-c1ccc(CNC(=O)[C@@H]2C[C@@H](O)CN2C(=O)[C@@H](NC(=O)C2(F)CC2)C(C)(C)C)c(OCCCN(C)CC[C@H](CSc2ccccc2)Nc2ccc(S(=O)(=O)NC(=O)c3ccc(N4CCN(CC5=C(c6ccc(Cl)cc6)CCC(C)(C)C5)CC4)cc3)cc2S(=O)(=O)C(F)(F)F)c1 [I-184] | – | – | –
50 to 75% | 500 to 1000 nM | > 75% | < 10 nM | 100 to 1000 nM | Cc1ncsc1-c1ccc([C@H](C)NC(=O)[C@@H]2C[C@@H](O)CN2C(=O)[C@@H](NC(=O)CCCCCCC(=O)N2CCN(C[C@@]3(C)CCC(c4ccc(Cl)cc4)=C(CN4CCN(c5ccc(C(=O)NS(=O)(=O)c6ccc(N[C@H](CCN7CCOCC7)CSc7ccccc7)c(S(=O)(=O)C(F)(F)F)c6)cc5)CC4)C3)CC2)C(C)(C)C)cc1 [I-396] | – | – | –
< 50% | > 1000 nM | 50 to 75% | 500 to 1000 nM | 100 to 1000 nM | Cc1ncsc1-c1ccc(CNC(=O)[C@@H]2C[C@@H](O)CN2C(=O)[C@@H](NC(=O)C2(F)CC2)C(C)(C)C)c(OCCC2CN(CC[C@H](CSc3ccccc3)Nc3ccc(S(=O)(=O)NC(=O)c4ccc(N5CCN(CC6=C(c7ccc(Cl)cc7)CCC(C)(C)C6)CC5)cc4)cc3S(=O)(=O)C(F)(F)F)C2)c1 [I-208] | – | – | –
< 50% | > 1000 nM | 50 to 75% | 100 to 500 nM | 100 to 1000 nM | Cc1ncsc1-c1ccc(CNC(=O)[C@@H]2C[C@@H](O)CN2C(=O)[C@@H](NC(=O)C2(F)CC2)C(C)(C)C)c(OCCN2CC3(C2)CN(C(=O)c2nc(N4CCc5cccc(C(=O)Nc6nc7ccccc7s6)c5C4)ccc2-c2cnn(CC4CCCCC4)c2C)C3)c1 [I-207] | – | – | –
– | – | > 75% | 10 to 100 nM | – | Cc1ncsc1-c1ccc(CNC(=O)[C@@H]2C[C@@H](O)CN2C(=O)[C@@H](NC(=O)C2(F)CC2)C(C)(C)C)c(OCC(=O)N2CCN(CC[C@H](CSc3ccccc3)Nc3ccc(S(=O)(=O)NC(=O)c4ccc(N5CCN(CC6=C(c7ccc(Cl)cc7)CCC(C)(C)C6)CC5)cc4)cc3S(=O)(=O)C(F)(F)F)CC2)c1 [I-387] | > 10000 nM | – | –
50 to 75% | 10 to 100 nM | > 75% | 10 to 100 nM | 100 to 1000 nM | Cc1ncsc1-c1ccc(CNC(=O)[C@@H]2C[C@@H](O)CN2C(=O)[C@@H](NC(=O)C2(F)CC2)C(C)(C)C)c(OCC(=O)N2CCN(CC#Cc3ccc(OCCCc4sc(N5CCc6cccc(C(=O)Nc7nc8ccccc8s7)c6C5)nc4C(=O)O)c(F)c3)CC2)c1 [I-170] | – | – | –
50 to 75% | 10 to 100 nM | > 75% | 10 to 100 nM | 100 to 1000 nM | Cc1ncsc1-c1ccc(CNC(=O)[C@@H]2C[C@@H](O)CN2C(=O)[C@@H](NC(=O)C2(F)CC2)C(C)(C)C)c(OCCN2CCC(CS(=O)(=O)NC(=O)c3nc(N4CCc5cccc(C(=O)Nc6nc7ccccc7s6)c5C4)ccc3-c3cnn(CC4CCCCC4)c3C)CC2)c1 [I-189] | – | – | –

Continued, compound first:

Compound | Dmax (BCL-XL [1]) | DC50 (BCL-XL [1]) | Dmax (BCL-XL [2]; [3]) | DC50 (BCL-XL [2]; [4]) | IC50 (MOLT-4 cells; MOLT-4, 72 h) | IC50 (Caki-2 cells) | Dmax (BCL-XL [2]; MOLT-4, read-out: Bcl-xL WB in MOLT-4 degradation 16 h: Average Dmax %) | IC50 (MOLT-4 cells; 72 h)
Cc1ncsc1-c1ccc([C@H](C)NC(=O)[C@@H]2C[C@@H](O)CN2C(=O)[C@@H](NC(=O)CO[C@H]2C[C@H](OCCNC(=O)c3nc(N4CCc5cccc(C(=O)Nc6nc7ccccc7s6)c5C4)ccc3-c3cnn(CC4CCCCC4)c3C)C2)C(C)(C)C)cc1 [I-182] | 50 to 75% | 100 to 500 nM | > 75% | 10 to 100 nM | 100 to 1000 nM | – | – | –
Cc1ncsc1-c1ccc(CNC(=O)[C@@H]2C[C@@H](O)CN2C(=O)[C@H](c2cc(N3CC4(CN(CCCC(=O)N(C)CC#Cc5ccc(OCCCc6ccc(N7CCc8cccc(C(=O)Nc9nc%10ccccc%10s9)c8C7)nc6C(=O)O)c(F)c5)C4)C3)no2)C(C)C)cc1 [I-181] | 50 to 75% | 10 to 100 nM | > 75% | < 10 nM | 100 to 1000 nM | – | – | –
Cc1ncsc1-c1ccc([C@H](C)NC(=O)[C@@H]2C[C@@H](O)CN2C(=O)[C@@H](NC(=O)CCCC(=O)N(C)CC#Cc2cccc(F)c2OCCCc2sc(N3CCc4cccc(C(=O)Nc5nc6ccccc6s5)c4C3)nc2C(=O)O)C(C)(C)C)cc1 [I-15] | – | – | 50 to 75% | 500 to 1000 nM | – | > 10000 nM | – | –
Cc1ncsc1-c1ccc([C@H](C)NC(=O)[C@@H]2C[C@@H](O)CN2C(=O)[C@@H](NC(=O)C2CCN(c3ccc(S(=O)(=O)NC(=O)c4nc(N5CCc6cccc(C(=O)Nc7nc8ccccc8s7)c6C5)ccc4-c4cccc5c4cnn5C(C)C)cc3)CC2)C(C)(C)C)cc1 [I-297] | < 50% | 500 to 1000 nM | – | – | – | 1000 to 10000 nM | – | –
Cc1ncsc1-c1ccc([C@H](C)NC(=O)[C@@H]2C[C@@H](O)CN2C(=O)[C@@H](NC(=O)CCCCCCCC(=O)N(C)CC#Cc2cccc(F)c2OCCCc2sc(N3CCc4cccc(C(=O)Nc5nc6ccccc6s5)c4C3)nc2C(=O)O)C(C)(C)C)cc1 [I-17] | – | – | > 75% | 10 to 100 nM | – | > 10000 nM | – | –
Cc1ncsc1-c1ccc([C@H](C)NC(=O)[C@@H]2C[C@@H](O)CN2C(=O)[C@@H](NC(=O)CCC2CCC(S(=O)(=O)NC(=O)c3nc(N4CCc5cccc(C(=O)Nc6nc7ccccc7s6)c5C4)ccc3-c3cnn(CC4CCCCC4)c3C)CC2)C(C)(C)C)cc1 (stereo partly shown) [I-209] | 50 to 75% | 100 to 500 nM | > 75% | 10 to 100 nM | < 100 nM | – | – | –
Cc1ncsc1-c1ccc([C@H](C)NC(=O)[C@@H]2C[C@@H](O)CN2C(=O)[C@@H](NC(=O)CCCCCC(=O)NCCOc2ccc(C(=O)Nc3nc4ccccc4s3)c3c2CCN(c2ccc(-c4cnn(CC5CCCCC5)c4C)c(C(=O)O)n2)C3)C(C)(C)C)cc1 [I-44] | – | – | > 75% | 100 to 500 nM | – | > 10000 nM | – | –
Cc1ncsc1-c1ccc([C@H](C)NC(=O)[C@@H]2C[C@@H](O)CN2C(=O)[C@@H](NC(=O)COCCN2CCC(S(=O)(=O)NC(=O)c3nc(N4CCc5cccc(C(=O)Nc6nc7ccccc7s6)c5C4)ccc3-c3cnn(CC4CCCCC4)c3C)CC2)C(C)(C)C)cc1 [I-206] | 50 to 75% | 10 to 100 nM | > 75% | < 10 nM | 100 to 1000 nM | – | – | –
Cc1ncsc1-c1ccc(CNC(=O)[C@@H]2C[C@@H](O)CN2C(=O)[C@H](c2cc(N3CC4(CN(C(=O)CCCCC(=O)N(C)CC#Cc5ccc(OCCCc6ccc(N7CCc8cccc(C(=O)Nc9nc%10ccccc%10s9)c8C7)nc6C(=O)O)c(F)c5)C4)C3)no2)C(C)C)cc1 [I-192] | < 50% | > 1000 nM | 50 to 75% | < 10 nM | 1000 to 3000 nM | – | – | –
Cc1ncsc1-c1ccc([C@H](C)NC(=O)[C@@H]2C[C@@H](O)CN2C(=O)[C@@H](NC(=O)CN2CC(N3CCC(NC(=O)c4nc(N5CCc6cccc(C(=O)Nc7nc8ccccc8s7)c6C5)ccc4-c4cnn(CC5CCCCC5)c4C)CC3)C2)C(C)(C)C)cc1 [I-176] | 50 to 75% | 100 to 500 nM | – | 10 to 100 nM | – | – | > 75% | 100 to 1000 nM
Cc1ncsc1-c1ccc([C@H](C)NC(=O)[C@@H]2C[C@@H](O)CN2C(=O)[C@@H](NC(=O)CCCCCCN(C)C(=O)c2nc(N3CCc4cccc(C(=O)Nc5nc6ccccc6s5)c4C3)ccc2-c2cnn(CC3CCCCC3)c2C)C(C)(C)C)cc1 [I-185] | 50 to 75% | 10 to 100 nM | > 75% | 10 to 100 nM | 100 to 1000 nM | – | – | –
Cc1ncsc1-c1ccc([C@H](C)NC(=O)[C@@H]2C[C@@H](O)CN2C(=O)[C@@H](NC(=O)CCCCCC(=O)N(C)CC#Cc2cccc(F)c2OCCCc2sc(N3CCc4cccc(C(=O)Nc5nc6ccccc6s5)c4C3)nc2C(=O)O)C(C)(C)C)cc1 [I-16] | – | – | > 75% | 100 to 500 nM | – | > 10000 nM | – | –
Cc1ncsc1-c1ccc([C@H](C)NC(=O)[C@@H]2C[C@@H](O)CN2C(=O)[C@@H](NC(=O)N2CC(c3ccc(S(=O)(=O)NC(=O)c4nc(N5CCc6cccc(C(=O)Nc7nc8ccccc8s7)c6C5)ccc4-c4cnn(CC5CCCCC5)c4C)cc3)C2)C(C)(C)C)cc1 [I-210] | 50 to 75% | 100 to 500 nM | > 75% | 100 to 500 nM | 100 to 1000 nM | – | – | –
